# Conditions: buffer; pH 7.4; 200.0 µM
row,SMILES,solubility kinetic [µg/mL]
1,O=C(COC(=O)c1ccc[nH]c1=O)NC1CCCCC1,37
2,CCn1c(CNC(=O)c2ccccc2F)cc2ccccc21,2
3,COc1ccc(/C(C)=N/NC(=O)CNC(=O)c2cccnc2)cc1,> 49
4,Cc1ccccc1C(=O)OCC(=O)NCc1ccco1,> 41
5,CC(=O)Oc1cccc(N2C(=O)C3C4C=CC(CC4)C3C2=O)c1 (stereo unspecified),32.8
6,CCCCC1CCC(C(=O)OC(C)C(=O)Nc2ccc(NC(C)=O)cc2)CC1 (stereo unspecified),9
7,O=C1C(Cl)=C(N2CCCCCC2)C(=O)N1c1ccccc1Cl,25.7
8,COc1ccc(CCNCc2sccc2C)cc1.Cl,> 44.7
9,COc1ccc(S(=O)(=O)N2CCCC2)cc1OC,32.7
10,O=C(CSCc1cccc(F)c1)NCc1ccccc1,35.2
11,COc1ccc(C(=O)N/N=C/c2cccnc2)cc1,> 38.3
12,Oc1ccc(-c2nccc(-c3ccc(Br)cc3)n2)cc1,0.4
13,Cc1ccc(S(=O)(=O)Nc2ccccc2C(=O)N2CCOCC2)cc1,> 54.1
14,CC(=O)c1c(C)n(-c2ccccc2Br)c2ccc(O)cc12,1
15,COc1ccccc1C/C(N)=N/OC(=O)c1ccc2c(c1)OCO2,> 49.2
16,O=C(Nc1cc(S(=O)(=O)N2CCOCC2)ccc1N1CCOCC1)c1ccccc1[N+](=O)[O-],> 71.5
17,CC(NS(=O)(=O)c1ccccc1)C(=O)NCCc1ccccn1 (stereo unspecified),> 50
18,CCCNS(=O)(=O)c1ccc(OCC(=O)NCC2CCCO2)cc1 (stereo unspecified),51.2
19,CC(C)=CCN1CCN(Cc2c[nH]c3ccccc23)CC1CCO (stereo unspecified),> 49.1
20,Cc1cc(OCC(=O)NC2CC2)c2c(C)c(C)c(=O)oc2c1,2.5
21,CCN1CCC(NCC2CCCCC2)CC1,23.2

row,SMILES,solubility kinetic [µg/mL]
1,Cc1cccnc1NC(=O)CCc1c[nH]c2ccccc12,> 41.9
2,S=C(NCc1ccco1)N1CCN(C/C=C/c2ccccc2)CC1,> 51.2
3,Cc1ccc(-n2c(C)c(C)c3c(N)ncnc32)cc1,16.1
4,COc1c(Cl)cccc1-c1cn2ccccc2n1,2
5,O=C(O)CSCc1nc2ccccc2[nH]1,31.7
6,COc1cc2c(C#N)c(N3CCc4ccccc4C3)nc(N)c2c(N)n1,1.6
7,COc1ccc(C2(C)NC(=O)N(CC3CCCCC3)C2=O)cc1 (stereo unspecified),> 47.5
8,CC(C)n1c(O)c(C=NCc2ccccc2)c(=O)[nH]c1=S,19.6
9,Cc1ccc(NC(=O)C=NOCC(=O)Nc2cc(C)cc(C)c2)cc1,3.5
10,O=C(NCc1cccnc1)Nc1ccc(Br)cc1,> 45.9
11,Fc1cccc(C2CCCCN2Cc2nc(C3CC3)no2)c1 (stereo unspecified),17.1
12,CN1CCN(C(=O)CNC(=O)Cc2ccc(Cl)cc2)CC1,> 46.5
13,O=C(O)Cc1c(-c2ccccc2)c2cc(Cl)ccc2[nH]c1=O,> 47.1
14,O=C(CSc1ncccn1)Nc1ccc2c(c1)OCO2,> 43.4
15,COc1cccc(CNC(=O)COC(=O)/C=C/c2ccc(SC)cc2)c1,3.8
16,CCc1noc(C)c1C(=O)Nc1nc2c(C)cccc2s1,8.6
17,CCc1ccccc1NC(=O)CN(C)Cc1c(O)ccc2ccccc12,22.8
18,CCS(=O)(=O)N1CCC(C(=O)Nc2cc([N+](=O)[O-])ccc2C)CC1,> 53.3
19,COc1ccc(-c2nc(-c3cccs3)no2)cc1,< 0.3
20,CC1=C(C)CC(C(=O)NCc2ccccc2F)C(C(=O)O)C1 (stereo unspecified),> 45.8
21,CCCn1c(=O)c(C(=O)NC(C)c2ccccc2)c(O)c2ccccc21 (stereo unspecified),1.3

row,SMILES,solubility kinetic [µg/mL]
1,Nc1ccc(-c2cnc[nH]2)cc1[N+](=O)[O-],> 30.6
2,CNC(=S)N1CCc2sccc2C1C (stereo unspecified),> 34
3,CCOc1ccc(N2C(=O)C3C4C=CC([C@H]5CC45)[C@@H]3C2=O)cc1 (stereo partly specified),8.5
4,Brc1ccccc1Cn1cnc2ccccc21,27.8
5,CCN(CC)S(=O)(=O)c1ccc(=O)[nH]c1,> 34.5
6,CCn1c(/C=C/c2ccc(O)cc2)nc2ccccc2c1=O,2.8
7,COc1cc(/C=C/C(=O)OCC(=O)NC(=O)C2COc3ccccc3O2)ccc1OC(F)F (stereo unspecified),15.4
8,CCOC(=O)COc1nc(-c2ccccc2)cc(-c2ccco2)c1C#N,< 0.4
9,Cc1ccc2nc(NC(=O)CC3Oc4ccccc4NC3=O)sc2c1 (stereo unspecified),3.8
10,COc1ccccc1NC(=O)CCN1C(=O)c2ccccc2S1(=O)=O,> 54.1
11,CC(=O)c1csc(COc2ccccc2)n1,27.3
12,O=C(CCNC(=O)c1ccco1)Nc1nc2ccccc2s1,4.5
13,O=C(c1ccc(NC(=S)NCc2ccco2)cc1)N1CCOCC1,41.6
14,C[C@@H](C(=O)Nc1ccccc1N1CCOCC1)N1C(=O)C2CCCCC2C1=O (stereo partly specified),> 57.8
15,Cc1ccn2c(C=O)c(-c3ccc(F)cc3)c(C=O)c2c1,8.5
16,CCc1c(C)nc(N2CCN(c3ccc(F)cc3)CC2)[nH]c1=O,2.1
17,Cc1cc(C)c2oc(=O)cc(CN3CCC(C)CC3)c2c1,4.1
18,COc1ccccc1NC(=O)C1CCCN(c2cnccn2)C1 (stereo unspecified),> 46.9
19,Cc1nc2ccc(NC(=O)C3COc4ccccc4O3)cc2s1 (stereo unspecified),30.9
